# Test results published in US10669268B2, “Bicyclic derivatives” (Hoffmann-La Roche Inc., priority 2012, dated 2020).
# Biological target: ATX (human His-tagged) (Homo sapiens (Human), UniProt Q13822)
# Assay: Human ATX enzyme inhibition assay (fluorescence quenching, MR121 substrate)
# Type: biochemical
# Conditions: 30 nM ATX, 1 μM MR121 substrate, 30° C., pH 8.0
# Summary of the method: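 Fluorescence-quenching assay using MR121 substrate at 1 μM final, incubated 15 min at 30 °C. Buffer was 50 mM Tris-HCl pH 8.0 with 140 mM NaCl, 5 mM KCl, 1 mM CaCl2, 1 mM MgCl2 and 0.01% Triton X-100.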
row,IC50 [nM],Compound
1,3,"O=C(COc1ccc(OC(F)(F)F)cc1)N1C[C@@H]2CN(C(=O)[C@@H]3CCc4[nH]nnc4C3)C[C@H]2C1 [Example 19.34, 1-[(3aS,6aS)-5-[(5R)-4,5,6,7-tetrahydro-1H-benzotriazole-5-carbonyl]-1,3,3a,4,6,6a-hexahydropyrrolo[3,4-c]pyrrol-2-yl]-2-[4-(trifluoromethoxy)phenoxy]ethanone]"
2,123,"O=C(OCc1ccc(F)c(OC(F)(F)F)c1)N1C[C@@H]2CN(C(=O)c3ccc4[nH]nnc4c3)C[C@@H]2C1 [Example 4.28, (3aS,6aR)-5-(1H-benzotriazole-5-carbonyl)-hexahydro-pyrrolo[3,4-c]pyrrole-2-carboxylic acid 4-fluoro-3-trifluoromethoxy-benzyl ester]"
3,4,"O=C(OCc1cc(Cl)cc(Cl)c1)N1CC[C@@H]2CN(C(=O)c3ccc4[nH]nnc4c3)C[C@@H]2CC1 [Example 1.11, (3aR,8aS)-3,5-dichlorobenzyl 2-(1H-benzo[d][1,2,3]triazole-5-carbonyl)octahydropyrrolo[3,4-d]azepine-6(7H)-carboxylate]"
4,280,O=C1N[C@@H]2CCN(C(=O)N3C[C@H]4CN(C(=O)/C=C/c5ccc(OC(F)(F)F)cc5)C[C@@H]4C3)C[C@H]2O1 [Example 15.54]
5,1020,N#Cc1ccc(OCC(=O)N2C[C@@H]3CN(C(=O)c4ccc5[nH]nnc5c4)C[C@H]3C2)cc1 [Example 15.94]
6,20,"O=C(OCc1ccc(F)cc1C(F)(F)F)N1CC[C@@H]2CN(C(=O)c3ccc4[nH]nnc4c3)C[C@H]2C1 (relative stereo) [Example 1.30, trans-2-(1H-benzotriazole-5-carbonyl)-octahydro-pyrrolo[3,4-c]pyridine-5-carboxylic acid 4-fluoro-2-trifluoromethyl-benzyl ester]"
7,926,"O=C(c1ccc2[nH]nnc2c1)N1CC[C@@H]2CN(c3nnc(-c4ccc(Cl)cc4)o3)C[C@H]2C1 (relative stereo) [Example 14, (1H-Benzotriazol-5-yl)-{trans-2-[5-(4-chloro-phenyl)-[1,3,4]oxadiazol-2-yl]-octahydro-pyrrolo[3,4-c]pyridin-5-yl}-methanone]"
8,5,"CS(=O)(=O)c1cc(Cl)cc(COC(=O)N2C[C@@H]3CN(C(=O)[C@@H]4CCc5[nH]nnc5C4)C[C@H]3C2)c1 [Example 4.60, (3aS,6aS)-5-((R)-4,5,6,7-tetrahydro-1H-benzotriazole-5-carbonyl)-hexahydro-pyrrolo[3,4-c]pyrrole-2-carboxylic acid 3-chloro-5-methanesulfonyl-benzyl ester]"
9,1580,"O=C(OCC1CCCCC1)N1C[C@@H]2CN(C(=O)c3ccc4[nH]nnc4c3)C[C@@H]2C1 [Example 4.19, (3aS,6aR)-5-(1H-benzotriazole-5-carbonyl)-hexahydro-pyrrolo[3,4-c]pyrrole-2-carboxylic acid cyclohexyl methyl ester]"
10,14,Cc1cc(OCC(=O)N2C[C@@H]3CN(C(=O)c4ccc5[nH]nnc5c4)C[C@@H]3C2)c(C(C)C)cc1Cl [Example 15.67]
11,218,"O=C(OCc1ccc(OC(F)(F)F)cc1)N1C[C@@H]2CN(C(=O)c3cnc4[nH]nnc4c3)C[C@H]2C1 [Example 1.49, (3aS,6aS)-5-(3H-[1,2,3]triazolo[4,5-b]pyridine-6-carbonyl)-hexahydro-pyrrolo[3,4-c]pyrrole-2-carboxylic acid 4-trifluoromethoxy-benzyl ester]"
12,20,O=C(/C=C/c1cccc(Cl)c1)N1CC[C@@H]2CN(C(=O)c3ccc4[nH]nnc4c3)C[C@@H]2CC1 [Example 15.18]
13,53,O=C(/C=C/c1cccc(OC(F)(F)F)c1)N1C[C@@H]2CN(C(=O)c3ccc4[nH]nnc4c3)C[C@H]2C1 [Example 15.22]
14,5,O=C(/C=C/c1ccc(OC(F)F)cc1)N1CC[C@@H]2CN(C(=O)c3ccc4[nH]nnc4c3)C[C@@H]2CC1 [Example 15.21]
15,6,"O=C(/C=C/c1ccc(OC(F)(F)F)cc1)N1CC[C@@H]2CN(C(=O)c3ccc4[nH]c(=O)oc4c3)C[C@@H]2CC1 [Example 2.02, 6-{(3aS,8aR)-6-[(E)-3-(4-trifluoromethoxy-phenyl)-acryloyl]-octahydro-pyrrolo[3,4-d]azepine-2-carbonyl}-3H-benzooxazol-2-one]"
16,22,"O=C(OCc1cc(Cl)cc(Cl)c1)N1CC[C@@H]2CN(C(=O)c3ccc4[nH]nnc4c3)C[C@H]2C1 (single isomer, unassigned) [Example 11A, trans-3,5-dichlorobenzyl 2-(1H-benzo[d][1,2,3]triazole-5-carbonyl)-hexahydro-1H-pyrrolo[3,4-c]pyridine-5(6H)-carboxylate]"

row,IC50 [nM],Compound
1,22,"O=C(OCc1cc(Cl)cc(Cl)c1)N1C[C@@H]2CN(S(=O)(=O)c3ccc4[nH]c(=O)oc4c3)C[C@@H]2C1 [Example 7, (3aR,6aS)-3,5-Dichlorobenzyl 5-(2-oxo-2,3-dihydrobenzo[d]oxazol-6-ylsulfonyl)hexahydropyrrolo[3,4-c]pyrrole-2(1H)-carboxylate]"
2,7,NS(=O)(=O)C1CCN(C(=O)N2C[C@H]3CN(C(=O)OCc4ccc(OC(F)(F)F)cc4)C[C@@H]3C2)CC1 [Example 9.10]
3,100,"COCCOc1ncc(C(=O)N2C[C@@H]3CN(C(=O)c4ccc5[nH]nnc5c4)C[C@H]3C2)cc1Br [Example 19.40, ((3aS,6aS)-5-(1H-benzo[d][1,2,3]triazole-5-carbonyl)hexahydropyrrolo[3,4-c]pyrrol-2(1H)-yl)(5-bromo-6-(2-methoxyethoxy)pyridin-3-yl)methanone]"
4,21,"O=C(OCc1ccc(C(F)(F)F)cc1C1CC1)N1CC[C@@H]2CN(C(=O)c3ccc4[nH]nnc4c3)C[C@H]2C1 (relative stereo) [Example 1.31, trans-2-(1H-benzotriazole-5-carbonyl)-octahydro-pyrrolo[3,4-c]pyridine-5-carboxylic acid 2-cyclopropyl-4-trifluoromethyl-benzyl ester]"
5,3,"Cc1cc(CCC(=O)N2C[C@@H]3CN(C(=O)c4ccc5[nH]nnc5c4)C[C@H]3C2)c(C(C)C)cc1C#N [Example 19.21, 4-[3-[(3aR,6aR)-5-(1H-benzotriazole-5-carbonyl)-1,3,3a,4,6,6a-hexahydropyrrolo[3,4-c]pyrrol-2-yl]-3-oxopropyl]-2-methyl-5-propan-2-ylbenzonitrile]"
6,6,"COc1ccc(/C=C/C(=O)N2CC[C@@H]3CN(C(=O)c4ccc5[nH]nnc5c4)C[C@@H]3CC2)c(C(F)(F)F)c1 [Example 1.28, (E)-1-((3aR,8aS)-2-(1H-benzo[d][1,2,3]triazole-5-carbonyl)octahydropyrrolo[3,4-d]azepin-6(7H)-yl)-3-(4-methoxy-2-(trifluoromethyl)phenyl)prop-2-en-1-one]"
7,5,"O=C(/C=C/c1ccc(OC(F)(F)F)cc1)N1CC[C@@H]2CN(C(=O)[C@@H]3CCc4[nH]nnc4C3)C[C@@H]2CC1 [Example 1.21, (E)-1-[(3aS,8aR)-2-((R)-4,5,6,7-tetrahydro-1H-benzotriazole-5-carbonyl)-octahydro-pyrrolo[3,4-d]azepin-6-yl]-3-(4-trifluoromethoxy-phenyl)-prop-2-en-1-one]"
8,85,"CN(Cc1cnn[nH]1)C(=O)N1C[C@H]2CCN(C(=O)CCc3ccc(OC(F)(F)F)cc3)CC[C@H]2C1 [Example 17.01, (3aR,8aS)-N-((1H-1,2,3-triazol-5-yl)methyl)-N-methyl-6-(3-(4-(trifluoromethoxy)phenyl)-propanoyl)octahydropyrrolo[3,4-d]azepine-2(1H)-carboxamide]"
9,122,"O=C(OCc1cccc(OC(F)(F)F)c1)N1C[C@@H]2CN(C(=O)c3ccc4[nH]nnc4c3)C[C@@H]2C1 [Example 4.25, (3aS,6aR)-5-(1H-benzotriazole-5-carbonyl)-hexahydro-pyrrolo[3,4-c]pyrrole-2-carboxylic acid 3-trifluoromethoxy-benzyl ester]"
10,12,O=C(c1ccc2[nH]nnc2c1)N1C[C@H]2CN(C(=O)c3cc4cc(OC(F)(F)F)ccc4[nH]3)C[C@@H]2C1 [Example 15.99]
11,5,"Cc1cc(OCC(=O)N2C[C@@H]3CN(C(=O)c4ccc5[nH]nnc5c4)C[C@H]3C2)c(C(C)C)cc1C#N [Example 19.05, 4-{2-[(3aS,6aS)-5-(1H-benzotriazole-5-carbonyl)-hexahydro-pyrrolo[3,4-c]pyrrol-2-yl]-2-oxo-ethoxy}-5-isopropyl-2-methyl-benzonitrile]"
12,921,COc1cc(C#N)ccc1OCC(=O)N1C[C@@H]2CN(C(=O)c3ccc4[nH]nnc4c3)C[C@H]2C1 [Example 15.93]
13,651,"O=C(/C=C/c1ccc(OC(F)(F)F)cc1)N1CC[C@@H]2CN(C(=O)c3ccc4nonc4c3)C[C@@H]2CC1 [Example 1.17, (E)-1-[(3aS,8aR)-2-(benzo[c][1,2,5]oxadiazole-5-carbonyl)-octahydro-pyrrolo[3,4-d]azepin-6-yl]-3-(4-trifluoromethoxy-phenyl)-prop-2-en-1-one]"
14,8,"O=C(/C=C/c1ccccc1C1CC1)N1CC[C@@H]2CN(C(=O)c3ccc4[nH]nnc4c3)C[C@@H]2CC1 [Example 1.29, (E)-1-((3aR,8aS)-2-(1H-benzo[d][1,2,3]triazole-5-carbonyl)octahydropyrrolo[3,4-d]azepin-6(7H)-yl)-3-(2-cyclopropylphenyl)prop-2-en-1-one]"
15,31,"CC(C)(C)c1ccccc1OCC(=O)N1C[C@@H]2CN(C(=O)c3ccc4[nH]nnc4c3)C[C@H]2C1 [Example 19.16, 1-[(3aS,6aS)-5-(1H-benzotriazole-5-carbonyl)-hexahydro-pyrrolo[3,4-c]pyrrol-2-yl]-2-(2-tert-butyl-phenoxy)-ethanone]"
